These results are taken from ChEMBL document CHEMBL1143272, “(S)-N-(5-Chlorothiophene-2-sulfonyl)-beta,beta-diethylalaninol a Notch-1-sparing gamma-secretase inhibitor” (Bioorg Med Chem Lett, 2009).

Converted amounts (≈) assume the structure as drawn.

Series [1] is described as follows: Inhibition of gamma-secretase-mediated amyloid beta 40/42 accumulation assessed as beta-CTF cleavage by cell-based sandwich ELISA.
The test system of series [2] is Mus musculus. As to the kind of experiment: Reduction in amyloid beta 42 level in Tg2576 mouse brain at 1 mg/kg, sc administered subchronically for 5 days. Also on record: scale not given: the % may be the effect or the level left. To be noted: route subcutaneous. Format: functional.
The target in the next series is Cytochrome P450 3A4 (Homo sapiens, UniProt P08684). As to the kind of experiment: Inhibition of CYP3A4 at 50 uM. Format: ADME.
Chain of Cytochrome P450 3A4 (P08684 whole entry): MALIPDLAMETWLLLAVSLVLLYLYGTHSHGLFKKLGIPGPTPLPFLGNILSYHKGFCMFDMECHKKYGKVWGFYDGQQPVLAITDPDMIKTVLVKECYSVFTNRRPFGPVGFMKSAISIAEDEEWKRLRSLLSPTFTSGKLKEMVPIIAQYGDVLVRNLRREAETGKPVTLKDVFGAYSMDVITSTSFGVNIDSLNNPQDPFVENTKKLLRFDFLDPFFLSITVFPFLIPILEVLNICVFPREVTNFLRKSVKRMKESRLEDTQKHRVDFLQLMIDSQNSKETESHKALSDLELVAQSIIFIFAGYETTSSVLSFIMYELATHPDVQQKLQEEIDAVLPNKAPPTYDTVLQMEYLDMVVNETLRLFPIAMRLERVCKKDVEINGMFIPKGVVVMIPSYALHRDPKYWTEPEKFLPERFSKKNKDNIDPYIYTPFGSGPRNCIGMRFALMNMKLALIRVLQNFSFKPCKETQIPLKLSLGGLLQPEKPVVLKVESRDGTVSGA
A short description of series [3]: Inhibition of gamma-secretase by Notch-1 cleavage assay.
For series [4], the system named is Mus musculus. As to the kind of experiment: Reduction in amyloid beta 40 level in Tg2576 mouse brain at 1 mg/kg, sc administered subchronically for 5 days. Conditions: route subcutaneous; call rule not given here. Format: functional. Also on record: scale not given: the % may be the effect or the level left.
In a further series the target is Cytochrome P450 2C9 (Homo sapiens, UniProt P11712). Briefly: Inhibition of CYP2C9 at 50 uM. Format: ADME.
Chain of Cytochrome P450 2C9 (P11712 whole entry): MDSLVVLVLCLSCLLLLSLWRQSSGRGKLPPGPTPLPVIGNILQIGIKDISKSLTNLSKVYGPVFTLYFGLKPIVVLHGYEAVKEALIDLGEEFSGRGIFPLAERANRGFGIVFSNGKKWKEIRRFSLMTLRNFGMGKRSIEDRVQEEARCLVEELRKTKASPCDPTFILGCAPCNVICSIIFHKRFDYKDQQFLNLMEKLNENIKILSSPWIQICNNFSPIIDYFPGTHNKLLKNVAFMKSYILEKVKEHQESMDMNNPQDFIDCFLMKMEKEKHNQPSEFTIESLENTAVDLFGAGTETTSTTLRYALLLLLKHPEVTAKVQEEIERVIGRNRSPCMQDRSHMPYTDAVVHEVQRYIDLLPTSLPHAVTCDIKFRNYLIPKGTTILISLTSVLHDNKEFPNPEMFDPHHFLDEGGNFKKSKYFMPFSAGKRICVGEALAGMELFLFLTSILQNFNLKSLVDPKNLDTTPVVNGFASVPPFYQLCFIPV
Series [5] relates to Mus musculus. As to the kind of experiment: Reduction in amyloid beta 40 level in Tg2576 mouse brain at 20 mg/kg, sc. Format: functional. Also on record: scale not given: the % may be the effect or the level left. To be noted: route subcutaneous.
The target of the next series is Cytochrome P450 2D6 (Homo sapiens, UniProt P10635). As to the kind of experiment: Inhibition of CYP2D6 at 50 uM. In kind it is ADME.
Chain of Cytochrome P450 2D6 (P10635 whole entry): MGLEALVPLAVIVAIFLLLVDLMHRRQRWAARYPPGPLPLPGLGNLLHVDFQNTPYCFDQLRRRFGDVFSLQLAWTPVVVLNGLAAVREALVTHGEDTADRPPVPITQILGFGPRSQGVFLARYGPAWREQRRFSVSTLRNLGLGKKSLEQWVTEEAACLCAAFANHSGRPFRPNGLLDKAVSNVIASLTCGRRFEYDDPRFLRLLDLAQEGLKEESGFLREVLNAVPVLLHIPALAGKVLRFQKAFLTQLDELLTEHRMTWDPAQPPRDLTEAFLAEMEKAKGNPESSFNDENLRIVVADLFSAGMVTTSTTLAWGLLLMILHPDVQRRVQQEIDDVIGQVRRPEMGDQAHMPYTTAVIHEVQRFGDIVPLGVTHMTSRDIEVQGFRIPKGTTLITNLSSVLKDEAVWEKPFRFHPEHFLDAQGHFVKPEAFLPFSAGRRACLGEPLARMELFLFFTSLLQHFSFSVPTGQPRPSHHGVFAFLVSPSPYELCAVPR
Series [6] in a line: Selectivity ratio of EC50 for gamma-secretase assessed as Notch-1 cleavage to EC50 for gamma-secretase assessed as beta-CTF cleavage.
The nature of series [7]: Solubility of compound at pH 7.4. Format: physicochemical. Conditions: buffer.

For the compound `CC[C@@H](C)[C@H](CO)NS(=O)(=O)c1ccc(Cl)s1`, in series [1], the EC50 stood at 7600 nM. The same measure, in the same setting: as for `CCCCCC[C@@H](C)[C@@H](CO)NS(=O)(=O)c1ccc(Cl)s1`, the figure is 212 nM; as for `CC(C)C[C@@H](CO)NS(=O)(=O)c1ccc(Cl)s1`, more than 30000 nM; as for `CC[C@H](C)[C@@H](CO)NS(=O)(=O)c1ccc(Cl)o1`, more than 30000 nM. Still for that read-out and setting: as for `C[C@@H](c1ccccc1)[C@@H](CO)NS(=O)(=O)c1ccc(Cl)s1`, the figure is 3910 nM; as for `CCCCC[C@H](CC(C)C)[C@@H](CO)NS(=O)(=O)c1ccc(Cl)s1`, 20700 nM; as for `CCCCC[C@H](CC)[C@@H](CO)NS(=O)(=O)c1ccc(Cl)s1`, 72 nM. In the case of `CC[C@H](C)[C@@H](CO)NS(=O)(=O)c1cc(Cl)c(Cl)s1`, the EC50 in series [1] was determined as 1050 nM. Still for that read-out and setting: as for `CC[C@@H](C)[C@@H](CO)NS(=O)(=O)c1ccc(Cl)s1`, the figure is 140 nM; as for `O=S(=O)(N[C@H](CO)C1CCCCC1)c1ccc(Cl)s1`, 820 nM; as for `CC(C)[C@@](C)(CO)NS(=O)(=O)c1ccc(Cl)s1`, 490 nM. Same read-out and setting: as for `CCC[C@H](c1ccccc1)[C@@H](CO)NS(=O)(=O)c1ccc(Cl)s1`, the figure is 4060 nM; as for `CC(C)C[C@@H](C)[C@@H](CO)NS(=O)(=O)c1ccc(Cl)s1`, 115 nM; as for `CC(C)[C@@H](CO)NS(=O)(=O)c1ccc(Cl)s1`, 820 nM.

For `CCCCCC[C@H](CC)[C@@H](CO)NS(=O)(=O)c1ccc(Cl)s1`, the EC50 in series [1] came to 429 nM. Still for that read-out and setting: as for `CC[C@H](C)[C@@H](CO)NS(=O)(=O)c1ccc(Br)s1`, the figure is 160 nM; as for `CCCC(CCC)[C@@H](CO)NS(=O)(=O)c1ccc(Cl)s1`, 111 nM; as for `CCCCCC[C@@H](CCCCC)[C@@H](CO)NS(=O)(=O)c1ccc(Cl)s1`, more than 30000 nM.

Consider `CCC[C@H](CC(C)C)[C@@H](CO)NS(=O)(=O)c1ccc(Cl)s1`, for which the EC50 in series [1] came out at 253 nM.

Turning to `CC[C@H](C)[C@@H](CO)NS(=O)(=O)c1sc(Cl)cc1Br`, in series [1], the EC50 was more than 30000 nM. Still for that read-out and setting: as for `CCCCC[C@H](c1ccccc1)[C@@H](CO)NS(=O)(=O)c1ccc(Cl)s1`, the figure is more than 30000 nM. Still for that read-out and setting: as for `CC(C)(C)[C@@H](CO)NS(=O)(=O)c1ccc(Cl)s1`, the figure is 7500 nM. On to `O=S(=O)(N[C@H](CO)C1CCNCC1)c1ccc(Cl)s1`, for which, in [1], the concentration for a half-maximal effect (EC50) was more than 30000 nM. On to `CC[C@H](C)[C@@H](CO)NS(=O)(=O)c1ccc(F)s1`, for which the EC50 in series [1] stood at 460 nM.

Regarding `CCCCC(CCCC)[C@@H](CO)NS(=O)(=O)c1ccc(Cl)s1`, in [1], the EC50 was 4180 nM.

Take `CCCCC[C@H](C)[C@@H](CO)NS(=O)(=O)c1ccc(Cl)s1`: the EC50 in series [1] worked out at 264 nM. The same measure, in the same setting: as for `CCCCCC[C@@H](CC)[C@@H](CO)NS(=O)(=O)c1ccc(Cl)s1`, the figure is 43 nM; as for `CCC[C@H](CC)[C@@H](CO)NS(=O)(=O)c1ccc(Cl)s1`, 29 nM; as for `O=S(=O)(N[C@H](CO)C1CCCC1)c1ccc(Cl)s1`, 580 nM. Same read-out and setting: as for `CC[C@H](C)[C@@H](CO)NS(=O)(=O)c1cccs1`, the figure is 7000 nM; as for `CC[C@H](CC(C)C)[C@@H](CO)NS(=O)(=O)c1ccc(Cl)s1`, 28 nM; as for `O=S(=O)(N[C@H](CO)C(c1ccccc1)c1ccccc1)c1ccc(Cl)s1`, more than 30000 nM. Same read-out and setting: as for `CC[C@H](C)[C@@H](CO)NS(=O)(=O)c1ccc(Cl)s1`, the figure is 170 nM; as for `CCC[C@H](C)[C@@H](CO)NS(=O)(=O)c1ccc(Cl)s1`, 103 nM. In the case of `CCC(CC)[C@@H](CO)NS(=O)(=O)c1ccc(Cl)s1` [GSI-136], the Activity is 15% in the series with Mus musculus [2]; “Not Active” on Cytochrome P450 3A4; 25% in the series on Mus musculus [4]; “Not Active” on Cytochrome P450 2C9; 55% in the series with Mus musculus [5]; “Not Active” on Cytochrome P450 2D6. The Activity in series [6] stood at 9.5. In addition, the EC50 in series [3] worked out at 266 nM; in series [1], 28 nM. In [7], this compound returned a solubility of 37 ng/mL (≈ 0.119 µM). With `CCCCCC[C@@H](C(C)C)[C@@H](CO)NS(=O)(=O)c1ccc(Cl)s1`, in [1], the EC50 was 71 nM. `CC[C@H](C)[C@@H](CO)NS(=O)(=O)c1ccccc1`: the EC50 in series [1] was determined as 4700 nM. Same read-out and setting: as for `CC[C@H](C)[C@@H](CO)NS(=O)(=O)c1ccc(Br)cc1`, the figure is 2200 nM; as for `CCCCCC[C@@H](CCC)[C@@H](CO)NS(=O)(=O)c1ccc(Cl)s1`, 826 nM. Same read-out and setting: as for `CC[C@H](C)[C@@H](CO)NS(=O)(=O)c1ccc(Cl)cc1`, the figure is 5500 nM.
